Laboratory results taken from PubChem BioAssay (NCI).
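Interpolation was linear, between the two tested concentrations surrounding the appropriate level; five concentrations were tested over 48 hours in 96-well plates. The concentration for full growth arrest is given as TGI.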

Assays:
Test in all cases: DTP human tumour cell line panel, 48 h
[1] = test system: A549 NSCLC
[2] = test system: ACHN renal
[3] = test system: CAKI-1 renal
[4] = test system: EKVX NSCLC
[5] = test system: HL-60(TB) leukemia
[6] = test system: HOP-62 NSCLC
[7] = test system: HT29 colon
[8] = test system: KM12 colon
[9] = test system: M14 melanoma
[10] = test system: RPMI-8226 leukemia
[11] = test system: SF-295 CNS
[12] = test system: SK-MEL-2 melanoma
[13] = test system: SK-MEL-5 melanoma
[14] = test system: SN12C renal
[15] = test system: SNB-19 CNS
[16] = test system: TK-10 renal
[17] = test system: HOP-92 NSCLC

| SMILES | TGI [1] [µM] | TGI [2] [µM] | TGI [3] [µM] | TGI [4] [µM] | TGI [5] [µM] | TGI [6] [µM] | TGI [7] [µM] | TGI [8] [µM] | TGI [9] [µM] | TGI [10] [µM] | TGI [11] [µM] | TGI [12] [µM] | TGI [13] [µM] | TGI [14] [µM] | TGI [15] [µM] | TGI [16] [µM] | TGI [17] [µM] |
| --- | --- | --- | --- | --- | --- | --- | --- | --- | --- | --- | --- | --- | --- | --- | --- | --- | --- |
| COC(=O)c1ccccc1NC(=O)C(=O)CC(=O)CC(c1ccccc1)c1c(O)c2ccccc2oc1=O (stereo unspecified) | > 100 | > 100 | > 100 | > 100 | > 100 | > 100 | > 100 | > 100 | > 100 | > 100 | > 100 | > 100 | > 100 | > 100 | > 100 | > 100 | – |
| CCOC(=O)c1[nH]c(CN(C)Cc2[nH]c(C(=O)OCC)c(C)c2C(=O)OCc2ccccc2)c(C(=O)OCc2ccccc2)c1C | 98.2 | > 100 | 23.8 | 42.5 | > 100 | 89.7 | 8.01 | 54.9 | 29.1 | – | > 100 | – | 22.2 | 34.5 | 42.2 | 43.8 | 8.73 |
| Cn1nc2ccc3nccc(N(CCO)CCO)c3c2n1 | > 100 | > 100 | > 100 | > 100 | > 100 | > 100 | > 100 | > 100 | > 100 | > 100 | > 100 | > 100 | > 100 | > 100 | > 100 | > 100 | > 100 |
| CC(C)(Oc1ccc2c(=O)cc(-c3ccccc3)oc2c1)C(=O)Nc1c(Cl)cccc1Cl | > 100 | – | > 100 | > 100 | > 100 | > 100 | > 100 | > 100 | > 100 | > 100 | > 100 | > 100 | > 100 | – | > 100 | > 100 | > 100 |
| COC(=O)CCc1cccnc1/C=N/O | > 100 | > 100 | > 100 | > 100 | > 100 | > 100 | > 100 | > 100 | > 100 | – | > 100 | > 100 | > 100 | > 100 | > 100 | > 100 | > 100 |
| CCCCCCCCCCCCn1[nH]c(C)c(C(=S)SCCCCCCCC)c1=O | > 100 | > 100 | > 100 | > 100 | > 75.7 | > 100 | > 100 | > 100 | > 100 | > 35.7 | > 100 | > 100 | > 100 | > 100 | > 100 | > 100 | > 100 |
| Brc1ccc2c(c1)C1C(CO2)C(c2ccccc2)=NN1c1ccccc1 (stereo unspecified) | > 100 | > 100 | – | > 100 | > 100 | > 100 | > 100 | > 100 | – | > 100 | > 100 | > 100 | – | – | > 100 | > 100 | > 100 |
| CC(=O)NC(CCCNC(=O)NCCCl)C(=O)NCc1ccccc1 (stereo unspecified) | > 100 | > 100 | > 100 | > 100 | > 100 | > 100 | > 100 | > 100 | > 100 | > 100 | > 100 | > 100 | > 100 | > 100 | > 100 | > 100 | > 100 |
| C/C(CC(=O)NC1=CC=C(NC(=O)C/C(C)=N\Nc2ccccc2)CC1)=N/Nc1ccccc1 | > 100 | > 100 | > 100 | > 100 | > 100 | > 100 | > 100 | > 100 | > 100 | > 100 | > 100 | > 100 | > 100 | > 100 | > 100 | > 100 | > 100 |
| CCC1(N=[N+]=[N-])C(=O)c2ccccc2N(c2ccccc2)C1=O (stereo unspecified) | > 100 | > 100 | > 100 | > 100 | > 100 | > 100 | > 100 | > 100 | > 100 | – | > 100 | > 100 | > 100 | > 100 | > 100 | > 100 | > 100 |
| CSc1nc2c(c(O)c(C)c(=O)n2C2OCC(OC(C)=O)C(OC(C)=O)C2OC(C)=O)c(=O)n1C (stereo unspecified) | > 100 | > 100 | > 100 | – | > 100 | > 100 | > 100 | > 100 | > 100 | > 100 | > 100 | > 100 | > 100 | > 100 | > 100 | > 100 | > 100 |
| COc1ccc(N2C(=O)[C@@H]3[C@H](C2=O)c2[nH]c4ccccc4c2C2CCC(C(C)(C)C)C[C@@H]23)cc1 (stereo partly specified) | > 80.3 | 87.6 | > 68.9 | 81.4 | > 100 | 32.9 | > 100 | > 100 | > 100 | > 100 | 29.4 | > 89.9 | > 100 | 37.5 | > 61.4 | 74.6 | – |
